Test results as given in ChEMBL document CHEMBL1150780, “Duocarmycin-based prodrugs for cancer prodrug monotherapy” (Bioorg Med Chem, 2008).

Tests used:
A549 [1] = assay: Ratio of IC50 for human A549 cells to IC50 for human A549 cells in presence of beta-D-glucuronidase; assay type: functional
A549 [2] = assay: Cytotoxicity against human A549 cells after 24 hrs visualized by Lofflers methylene blue by colony forming assay; assay type: functional, cell-based
A549 [3] = assay: Cytotoxicity against human A549 cells after 24 hrs visualized by Lofflers methylene blue by colony forming assay in presence of beta-D-glucuronidase; assay type: functional, cell-based

C[C@@H](Cl)[C@@H]1CN(C(=O)c2cc3cc(OCCN(C)C)ccc3[nH]2)c2cc(O[C@@H]3O[C@H](C(=O)O)[C@@H](O)[C@H](O)[C@H]3O)c3ccccc3c21
Ratio IC50 (A549 [1]): 700 | IC50 (A549 [2]): 610 nM | IC50 (A549 [3]): 0.9 nM

COC(=O)[C@H]1O[C@@H](Oc2cc3c(c4ccccc24)[C@H]([C@@H](C)Cl)CN3C(=O)c2cc3cc(OCCN(C)C)ccc3[nH]2)[C@H](O)[C@@H](O)[C@@H]1O
Ratio IC50 (A549 [1]): 1600 | IC50 (A549 [2]): 3300 nM | IC50 (A549 [3]): 2.1 nM
